Results published in the supplement of paper PMC11208160.

Assay: recombinant barcode read abundance after kanamycin selection (control-corrected) (log10(CPM+1)); higher = more efficient recombination; sequences stand for … in AGTGCAGAGAAAATCGGCCAGTTTTCTCTGCCTGCAGTCCGCATGCCGT…AGATTTATGCAGCGGACTGCCTTTCTCCCAAAGTGATAAACCGGACAGTATCATGGACCGGTTTTCCCGGTAATCCGTATTTGCAAGGTTGGTTTCACT; site = the 11-nt target
Method in brief: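 Recombination efficiency comes from barcode counts at recombinant junctions, converted to counts per million, averaged and corrected against the control. Values appear as log10(CPM+1). They were obtained from a pooled E. coli screen in which each oligo paired a target with an IS621 bridge RNA target-binding loop, and cells were plated in duplicate on chloramphenicol/ampicillin LB agar or on chloramphenicol/ampicillin/kanamycin with 0.1 mM IPTG.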
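Also: IS621 recombinase and bridge RNA in Escherichia coli cells.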

Row | Sequence | recombinant barcode read abundance (log10)
1 | ATGGACCCTTGGGTTCTAACCTGTTGCTC (site TATCGGGCTCT) | 0.0488
2 | ATGGATACTTGGGTTCTAACCTGTTGCGT (site AGGGATACTAC) | 0.219
3 | ATGGATACTTGGGTTCTAACCTGTTGCGT (site ATGGATACTAC) | 2.51
4 | ATGGCGGCTTGGGTTCTAACCTGTTGCCT (site ATGGCGGCTAG) | 1.69
5 | ATGGCGGCTTGGGTTCTAACCTGTTGCCT (site GTGGAGGCTAG) | 0.0374
6 | ATGGGCACTTGGGTTCTAACCTGTTGCCT (site ATAGGAACTAG) | 0.198
7 | ATGGGCACTTGGGTTCTAACCTGTTGCCT (site ATGGGCACTAG) | 0.639
8 | ATGGGCCCTTGGGTTCTAACCTGTTGCTC (site ATGGGCCCTAA) | 1.36
9 | ATGGGCCCTTGGGTTCTAACCTGTTGCTC (site ATGGGCCCTCA) | 1.04
10 | ATGGGCCCTTGGGTTCTAACCTGTTGCTC (site ATGGGCCCTGA) | 2.09
11 | ATGGGCCCTTGGGTTCTAACCTGTTGCTC (site ATGGGCCCTTA) | 0.0312
12 | ATGGGTCCTTGGGTTCTAACCTGTTGCCT (site ATAGGTCCTAG) | 2.07
13 | ATGGGTCCTTGGGTTCTAACCTGTTGCCT (site ATCGGTCCTAG) | 0.0834
14 | ATGGGTCCTTGGGTTCTAACCTGTTGCCT (site ATGGGTCCTAG) | 2.55
15 | ATGGGTCCTTGGGTTCTAACCTGTTGCCT (site ATTGGTCCTAG) | 0.356
16 | ATGGTCCCTTGGGTTCTAACCTGTTGCCT (site ATAGTCCCTAG) | 3.2
17 | ATGGTCCCTTGGGTTCTAACCTGTTGCCT (site ATGGTCCCTAG) | 3.16
18 | ATGGTGGCTTGGGTTCTAACCTGTTGCCT (site ATGGTGACTAG) | 1.17
19 | ATGGTGGCTTGGGTTCTAACCTGTTGCCT (site ATGGTGCCTAG) | 0.288
20 | ATGGTGGCTTGGGTTCTAACCTGTTGCCT (site ATGGTGGCTAG) | 1.81

Row | Sequence | recombinant barcode read abundance (log10)
21 | ATGGTGGCTTGGGTTCTAACCTGTTGCCT (site ATGGTGTCTAG) | 0.241
22 | ATGTCTACTTGGGTTCTAACCTGTTGCCA (site ATAACTACTTG) | 0.0597
23 | ATGTCTACTTGGGTTCTAACCTGTTGCCA (site ATGTCTACTTG) | 0.0628
24 | ATTACCTCTTGGGTTCTAACCTGTTGCCT (site AATACCTCTAG) | 0.0245
25 | ATTACCTCTTGGGTTCTAACCTGTTGCCT (site ACTACCTCTAG) | 0.0829
26 | ATTACCTCTTGGGTTCTAACCTGTTGCCT (site AGTACCTCTAG) | 0.0695
27 | ATTACCTCTTGGGTTCTAACCTGTTGCCT (site ATTACCTCTAG) | 1.1
28 | ATTACTTCTTGGGTTCTAACCTGTTGCTT (site ATTACTTCTAA) | 0.282
29 | ATTACTTCTTGGGTTCTAACCTGTTGCTT (site GAGTTCCCTGG) | 0.406
30 | ATTAGGACTTGGGTTCTAACCTGTTGCAG (site ATTAGGACTCA) | 0.579
31 | ATTAGGACTTGGGTTCTAACCTGTTGCAG (site ATTAGGACTCT) | 2.1
32 | ATTAGGACTTGGGTTCTAACCTGTTGCGA (site AATAGGACTGC) | 0.03
33 | ATTAGGACTTGGGTTCTAACCTGTTGCGA (site ATTAGGACTTC) | 2.3
34 | ATTAGTGCTTGGGTTCTAACCTGTTGCCT (site AATAGTGCTAG) | 0.605
35 | ATTAGTGCTTGGGTTCTAACCTGTTGCCT (site ACTAGTGCTAG) | 0
36 | ATTAGTGCTTGGGTTCTAACCTGTTGCCT (site AGTAGTGCTAG) | 0.118
37 | ATTAGTGCTTGGGTTCTAACCTGTTGCCT (site ATTAGTGCTAG) | 0.0389
38 | ATTCACACTTGGGTTCTAACCTGTTGCGT (site ATTCACACTAC) | 2.16
39 | ATTCACACTTGGGTTCTAACCTGTTGCGT (site CGATTAGCTCG) | 0.0576
40 | ATTGGATCTTGGGTTCTAACCTGTTGCCT (site ATTGGATCTAG) | 0.391

Row | Sequence | recombinant barcode read abundance (log10)
41 | ATTGGATCTTGGGTTCTAACCTGTTGCCT (site ATTGGCTCTAG) | 0.0247
42 | ATTGGATCTTGGGTTCTAACCTGTTGCCT (site ATTGGGTCTAG) | 0.0971
43 | ATTGGATCTTGGGTTCTAACCTGTTGCCT (site ATTGGTTCTAG) | 0.205
44 | ATTTCCACTTGGGTTCTAACCTGTTGCCT (site AAGTCCACTAG) | 0.176
45 | ATTTCCACTTGGGTTCTAACCTGTTGCCT (site ATTTCCACTAG) | 0.433
46 | ATTTGCCCTTGGGTTCTAACCTGTTGCCT (site AATTGCCCTAG) | 0.222
47 | ATTTGCCCTTGGGTTCTAACCTGTTGCCT (site ACTTGCCCTAG) | 0.0987
48 | ATTTGCCCTTGGGTTCTAACCTGTTGCCT (site AGTTGCCCTAG) | 0.0335
49 | ATTTGCCCTTGGGTTCTAACCTGTTGCCT (site ATTTGCCCTAG) | 0.122
50 | CAAAACTCTTGGGTTCTAACCTGTTGCTT (site CAAAACTCTAA) | 0.554
51 | CAAAACTCTTGGGTTCTAACCTGTTGCTT (site TCCCCGGCTCC) | 0.0614
52 | CAAAAGGCTTGGGTTCTAACCTGTTGCAG (site CAAAAGGCTCT) | 1.7
53 | CAAAAGGCTTGGGTTCTAACCTGTTGCAG (site CAAAGGGCTCT) | 0.386
54 | CAAAATTCTTGGGTTCTAACCTGTTGCGT (site CAAAATTCTAC) | 0.703
55 | CAAAATTCTTGGGTTCTAACCTGTTGCGT (site CAGAATACTAC) | 0.0891
56 | CAAACAGCTTGGGTTCTAACCTGTTGCCT (site CAAACAACTAG) | 0.0742
57 | CAAACAGCTTGGGTTCTAACCTGTTGCCT (site CAAACACCTAG) | 0.634
58 | CAAACAGCTTGGGTTCTAACCTGTTGCCT (site CAAACAGCTAG) | 0.824
59 | CAAACAGCTTGGGTTCTAACCTGTTGCCT (site CAAACATCTAG) | 0.113
